Patent publication US20170197996A1, “Cholinesterase Inhibitors” (priority 2012, published 2017)

System: acetylcholinesterase
Type: in vivo, rat
Details: Trials C, D; 0.030 mg/Kg dose 10 min prior to tracer; FIG. 11, FIG. 12 vs FIG. 8

CCOP(=O)(OCC)Oc1ccc([N+](=O)[O-])cc1 [paraoxon]
reduction of tracer [^18F]-6 SUV radioactivity signals across all brain ROIs: significant reduction of SUV radioactivity signals
